Read-outs that look alike come from different tables or passages of the source.
Columns and labels:
[1] = test system: Rinderherz PDE "Boehringer"; assay: Inhibition of phosphodiesterase (PDE), substrate cAMP; assay type: biochemical, Rind; details: compound 0,2 mM; substrate cAMP 0,15 mM; Rinderherz PDE in Glycerin; 200 µM
Procedure: Die Tabelle 1. gibt die gefundenen Werte der Hemmung der Phosphodiesterase (PDE) an. Es wurde Rinderherz PDE "Boehringer" in Glycerin und als Substrat cAMP (0,15 mM) verwendet. Die Konzentration der untersuchten Verbindungen war 0,2 mM.

[2] = test system: durch Methanol hervorgerufene Retinaschädigung; assay: Retinotropic effect measured on the mouse electroretinogram (antagonism of methanol-induced retinal damage); assay type: in vivo, Maus; details: for Retinotrope Wirkung [%]: Elektroretinogramm der Maus; for retinotrope Wirkung (in words): in the dose range in which the compounds of the invention were tested
Text: Die Versuchsmethodik ist bei K.K.Gauri und W.Hohl, Der Augenspiegel, 1979 (Heft 9), und […] Referenzen beschrieben.

[3] = test system: Trachealspangen-Kette des Meerschweinchens; assay: Relaxation of the spontaneously contracted guinea pig tracheal ring chain in vitro (organ bath); design: species or system Meerschweinchen; details: for Relative Wirkungsstärke (Theophyllin=1,00): relative to Theophyllin, from ED50 of tracheal relaxation; for EC50: relaxation as fraction of maximum by (-)Isoprenalin 10^-6 mol/l, cumulative concentrations, 37°C, read-out: ED50 (Dosis der halbmaximal möglichen Relaxation)
Procedure: Weiterhin wurde die relaxierende Wirkung erfindungsgemäBer Verbindungen auf die Trachealspangen-Kette des Meerschweinchens in vitro geprüft:
Vier parallele, aus jeweils 6 Einzelringen bestehende Trachealspangen-Ketten des Meerschweinchens (♂ und ♀, 430-600 g) im Organbad (5 ml, Krebs-Henseleit-Lösung mit Zusatz von Phentolamin (10^-5 mol/l, 37°C, Vorspannung der Organe 2 g, Begasung mit Carbogen) entwickeln nach etwa 20 bis 30 Minuten eine stabile, tonische Spontankontraktur. An diesen dauerkontrahierten Organen kann unter isometrischen Meßbedingungen durch Applikation der Prüfsubstanz in kumulativhalblogarithmisch ansteigender Konzentration (z.B. 1x10^-6 + 2x10^-6 + 7x10^-6 + 2x10^-5 usw. mol/l) eine Relaxation herbeigeführt werden, wobei nach jeder Einzeldosis der Testsubstanz eine konstante Relaxations-Antwort abgewartet wird, bevor die nächst höhere Konzentration appliziert wird. Ober einen Zeitraum von 20 bis 30 Minuten wird somit eine vollständige Dosis-Wirkungskurve der Testsubstanz erhalten. Die jeweilige Relaxation wird als Prozentbruchteil der durch Gabe von (-)Isoprenalin (10^-6 mol/1) maximal erreichbaren Relaxation ausgedrückt.
In Tabelle 3 sind die ED50 (Dosis der halbmaximal möglichen Relaxation) und die relative Wirkungsstärke im Vergleich zu Theophyllin für erfindungsgemäße Verbindungen angegeben.

Row | SMILES | Hemmung der PDE in % [1] | Relative Wirkungsstärke (Theophyllin=1,00) [3] | EC50 [3] [µM] | further results
1 | CCCCCCn1c(=O)n(C)c(=O)c2c[nH]nc21 [I, 7-n-Hexyl-4,5,6,7-tetrahydro-5-methyl-4,6-dioxo-2H-pyrazolo[3,4-d]-pyrimidin] | 47,84% |  |  | 
2 | CCCCCCn1c(=O)n(C)c(=O)c2cn(C)nc21 [II, 7-n-Hexyl-4,5,6,7-tetrahydro-2,5-dimethyl-4,6-dioxo-2H-pyrazolo[3,4-d]-pyrimidin] | 47,41% |  |  | 
3 | CCCCCCn1c(=O)n(C)c(=O)c2cn(CC)nc21 [III, 2-Ethyl-7-n-hexyl-4,5,6,7-tetrahydro-5-methyl-4,6-dioxo-2H-pyrazolo-[3,4-d]pyrimidin] | 58,51% |  |  | Retinotrope Wirkung [%] ([2]; Dosis 1 mg/kg): +24%
4 | CCCCCCn1c(=O)n(C)c(=O)c2cn(CCC)nc21 [IV, 7-n-Hexyl-4,5,6,7-tetrahydro-5-methyl-4,6-dioxo-2-n-propyl-2H-pyrazolo-[3,4-d]pyrimidin] | 63,04% |  |  | 
5 | CCCCCCn1c(=O)c2cn(CC)nc2n(C)c1=O [IX, 2-Ethyl-5-n-hexyl-4,5,6,7-tetrahydro-7-methyl-4,6-dioxo-2H-pyrazolo-[3,4-d]pyrimidin] | 71,52% | 3,4 | 38 | Retinotrope Wirkung [%] ([2]; Dosis 1 mg/kg): +12%
6 | CC(=O)CCCCn1c(=O)c2c(ncn2C)n(C)c1=O [Pentoxifyllin, reference compound] |  |  |  | Retinotrope Wirkung [%] ([2]; Dosis 6,25 mg/kg): 0%; retinotrope Wirkung (in words) [2]: noch keine retinotrope Wirkung
7 | Cn1c(=O)c2[nH]cnc2n(C)c1=O [Theophyllin, reference compound] | 37,13% | 1,00 | 130 | Retinotrope Wirkung [%] ([2]; Dosis 10 mg/kg): 0%; retinotrope Wirkung (in words) [2]: noch keine retinotrope Wirkung
8 | CCCCCCn1c(=O)n(C)c(=O)c2cn(CCCC)nc21 [V, 2-n-Butyl-7-n-hexyl-4,5,6,7-tetrahydro-5-methyl-4,6-dioxo-2H-pyra-zolo-[3,4-d]pyrimidin] | 70,86% | 1,8 | 62 | 
9 | CCCCCCn1cc2c(=O)n(C)c(=O)n(CCCCCC)c2n1 [VI, 2,7-Di-n-hexyl-4,5,6,7-tetrahydro-5-methyl-4,6-dioxo-2H-pyrazolo[3,4-d]-pyrimidin] | 37,30% |  |  | 
10 | CCCCCCn1c(=O)c2cn[nH]c2n(C)c1=O [VII, 5-n-Hexyl-4,5,6,7-tetrahydro-7-methyl-4,6-dioxo-1H-pyrazolo[3,4-d]-pyrimidin] | 52,43% |  |  | 
11 | CCCCCCn1c(=O)c2cn(C)nc2n(C)c1=O [VIII, 5-n-Hexyl-4,5,6,7-tetrahydro-2,7-dimethyl-4,6-dioxo-2H-pyrazolo-[3,4-d]pyrimidin] | 42,04% |  |  | 
12 | CCCCCCn1c(=O)c2cn(CCCC)nc2n(C)c1=O [X, 2-n-Butyl-5-n-hexyl-4,5,6,7-tetrahydro-7-methyl-4,6-dioxo-2H-pyra-zolo[3,4-d]pyrimidin] | 37,83% |  |  | 
13 | CCCCCCn1cc2c(=O)n(CCCCCC)c(=O)n(C)c2n1 [XI, 2,5-Di-n-hexyl-4,5,6,7-tetrahydro-7-methyl-4,6-dioxo-2H-pyrazolo-[3,4-d]pyrimidin] | 18,35% |  |  | 
14 | CCCCCCn1c(=O)c2cn(C(=O)c3cc(OC)c(OC)c(OC)c3)nc2n(C)c1=O [XII, 5-n-Hexyl-4,5,6,7-tetrahydro-2-(3,4,5-trimethoxybenzoyl)-7-methyl-4,6-dioxo-2H-pyrazolo[3,4-d]pyrimidin] |  | 3,7 |  | Retinotrope Wirkung [%] ([2]; Dosis 1 mg/kg): +40%; EC50 ([3]; Cavia porcellus): 350 µM
15 | CCCCCCn1c(=O)n(C)c(=O)c2cnn(C)c21 [XIII, 7-Hexyl-4,5,6,7-tetrahydro-1,5-dimethyl-4,6-dioxo-1H-pyrazolo-[3,4-d]pyrimidin] |  | 1,4 | 95 | 
16 | COc1cc(C(=O)n2cc3c(=O)n(CC(C)C)c(=O)n(C)c3n2)cc(OC)c1OC [XVI, 5-i-Butyl-4,5,6,7-tetrahydro-2-(3,4,5-trimethoxybenzoyl)-7-methyl-4,6-dioxo-2H-pyrazolo[3,4-d]pyrimidin] |  | 1,7 | 75 | 
17 | CCn1c(=O)n(CCCCC(C)=O)c(=O)c2cnn(C)c21 [XVII, 7-Ethyl-4,5,6,7-tetrahydro-1-methyl-4,6-dioxo-5'-(5-oxo-n-hexyl)-1H-pyrazolo[3,4-d]pyrimidin] |  | 2,0 | 66 | Retinotrope Wirkung [%] ([2]; Dosis 2 mg/kg): +80%
18 | CC(C)Cn1c(=O)n(C)c(=O)c2cn(CCO)nc21 [XVIII, 7-j-Butyl-4,5,6,7-tetrahydro-2-(2-hydroxyethyl)-5-methyl-4,6-dioxo-2H-pyrazolo[3,4-d]pyrimidin] |  | 10,0 | 13 | 
19 | CC(C)Cn1c(=O)n(C)c(=O)c2c[nH]nc21 [XV] |  | 7,6 | 17 | 

Source: EP0063381A1, “Pyrazolo(3-4-d) pyrimidines, process for their preparation and pharmaceutical compositions containing them” (Byk Gulden Lomberg Chemische Fabrik GmbH, priority 1981, dated 1982)
